Laboratory results from patent publication US11364275B2, “Linear lipopeptide paenipeptins and methods of using the same” (priority 2017, dated 2022).
Values after ≈ are worked out from the molar mass of the structure shown.

Key:
[1] = test system: K. pneumoniae FDA-CDC AR 0097; test: Time-kill kinetics in tryptic soy broth, alone and combined; type: cell-based, Klebsiella pneumoniae; conditions: K. pneumoniae AR 0097; TSB; analogues 4 μg/ml, antibiotics 1 μg/ml
Method: Bacterial viable counts were determined at 0, 2, 4, 6, and 24 h after antimicrobial treatment. Bacterial surviving counts at 24 h endpoints were subjected to analysis of variance (ANOVA) followed by Tukey's honest significant difference (HSD) tests using SPSS Statistics (version 24; SPSS, Inc., Chicago, Ill., USA).

[2] = test system: A. baumannii FDA-CDC AR 0037; test: microbe, parasite or virus in culture; conditions: Acinetobacter baumannii, read-out: MIC alone
[3] = test system: A. baumannii FDA-CDC AR 0052; test: microbe, parasite or virus in culture; conditions: Acinetobacter baumannii, read-out: MIC alone
[4] = test system: A. baumannii FDA-CDC AR 0063; test: microbe, parasite or virus in culture; conditions: Acinetobacter baumannii, read-out: MIC alone
[5] = test system: A. baumannii FDA-CDC AR 0070; test: microbe, parasite or virus in culture; conditions: Acinetobacter baumannii, read-out: MIC alone
[6] = test system: A. baumannii FDA-CDC AR 0083; test: microbe, parasite or virus in culture; conditions: Acinetobacter baumannii, read-out: MIC alone
[7] = test system: K. pneumoniae FDA-CDC AR 0034; test: microbe, parasite or virus in culture; conditions: Klebsiella pneumoniae, read-out: MIC alone
[8] = test system: K. pneumoniae FDA-CDC AR 0044; test: microbe, parasite or virus in culture; conditions: Klebsiella pneumoniae, read-out: MIC alone
[9] = test system: K. pneumoniae FDA-CDC AR 0068; test: microbe, parasite or virus in culture; conditions: Klebsiella pneumoniae, read-out: MIC alone
[10] = test system: K. pneumoniae FDA-CDC AR 0080; test: microbe, parasite or virus in culture; conditions: Klebsiella pneumoniae, read-out: MIC alone
[11] = test system: K. pneumoniae FDA-CDC AR 0097; test: microbe, parasite or virus in culture; conditions: Klebsiella pneumoniae, read-out: MIC alone

MIC [2]: 16 µg/mL (≈ 21.4 µM)
MIC [3]: 4 µg/mL (≈ 5.35 µM)
MIC [4]: 16 to 32 µg/mL (≈ 21.4 to 42.8 µM)
MIC [5]: 2 to 4 µg/mL (≈ 2.67 to 5.35 µM)
MIC [6]: > 32 µg/mL
MIC [7]: > 32 µg/mL
MIC [8]: > 32 µg/mL
MIC [9]: > 32 µg/mL
MIC [10]: > 32 µg/mL
MIC [11]: > 32 µg/mL
SMILES: CC[C@H]1OC(=O)[C@H](C)[C@@H](O[C@H]2C[C@@](C)(OC)[C@@H](O)[C@H](C)O2)[C@H](C)[C@@H](O[C@@H]2O[C@H](C)C[C@H](N(C)C)[C@H]2O)[C@](C)(OC)C[C@@H](C)C(=O)[C@H](C)[C@@H](O)[C@]1(C)O [clarithromycin]
bactericidal activity, single agent (in words) [1]: not bactericidal
